Results on 14 compounds are retold here after patent US20240376121A1, “COMPOUNDS AND USES THEREOF” (Foghorn Therapeutics Inc., priority 2021, published 2024).

The target of assay [1] is T1, HiBit-BRG1 fusion protein (Homo sapiens, UniProt P51532).
T1 construct: expressed in transfected cells
The assay is described as follows: HiBiT-BRG1 cell-based degradation assay (Nano-Glo HiBiT Lytic Detection). The conditions noted are these: stable HeLa cell line expressing HiBit-BRG1 and LgBit, 24 h incubation; for Dmax: top dose 30 μM, read-out: BRG1 HiBit Degradation Maximum (%); for DC50: read-out: BRMG1 HiBit Degradation IC50. A digest of the protocol: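 HeLa cells stably expressing HiBiT-BRG1 and LgBiT treated 24 h with 10-point 3-fold dilutions (top 30 μM, duplicate). Luminescence read after Nano-Glo HiBiT lytic reagent; % degradation relative to DMSO (high control) and 2 μM reference BRM/BRG1 degrader (low control).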

Assay [2] has as its target T2, HiBit-BRM fusion protein (Homo sapiens, UniProt P51531).
T2 construct: expressed in transfected cells
In words: HiBiT-BRM cell-based degradation assay (Nano-Glo HiBiT Lytic Detection). The settings on record: stable HeLa cell line expressing HiBiT-BRM, 24 h incubation; for BRM HiBit Degradation Maximum (%): top dose 30 μM; for DC50: read-out: BRM HiBit Degradation IC50. An outline of the steps: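 HeLa cells stably expressing HiBiT-BRM were treated for 24 h with compounds (10-point 3-fold dilutions, 30 μM final top dose, in duplicate). HiBiT was detected by lytic LgBiT complementation luminescence. % degradation was normalized to DMSO (high control) and 2 μM of a reference BRM/BRG1 degrader (low control).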

Molecules are shown by their SMILES.

T2 sequence (P51531 whole entry, the tested form may be a part): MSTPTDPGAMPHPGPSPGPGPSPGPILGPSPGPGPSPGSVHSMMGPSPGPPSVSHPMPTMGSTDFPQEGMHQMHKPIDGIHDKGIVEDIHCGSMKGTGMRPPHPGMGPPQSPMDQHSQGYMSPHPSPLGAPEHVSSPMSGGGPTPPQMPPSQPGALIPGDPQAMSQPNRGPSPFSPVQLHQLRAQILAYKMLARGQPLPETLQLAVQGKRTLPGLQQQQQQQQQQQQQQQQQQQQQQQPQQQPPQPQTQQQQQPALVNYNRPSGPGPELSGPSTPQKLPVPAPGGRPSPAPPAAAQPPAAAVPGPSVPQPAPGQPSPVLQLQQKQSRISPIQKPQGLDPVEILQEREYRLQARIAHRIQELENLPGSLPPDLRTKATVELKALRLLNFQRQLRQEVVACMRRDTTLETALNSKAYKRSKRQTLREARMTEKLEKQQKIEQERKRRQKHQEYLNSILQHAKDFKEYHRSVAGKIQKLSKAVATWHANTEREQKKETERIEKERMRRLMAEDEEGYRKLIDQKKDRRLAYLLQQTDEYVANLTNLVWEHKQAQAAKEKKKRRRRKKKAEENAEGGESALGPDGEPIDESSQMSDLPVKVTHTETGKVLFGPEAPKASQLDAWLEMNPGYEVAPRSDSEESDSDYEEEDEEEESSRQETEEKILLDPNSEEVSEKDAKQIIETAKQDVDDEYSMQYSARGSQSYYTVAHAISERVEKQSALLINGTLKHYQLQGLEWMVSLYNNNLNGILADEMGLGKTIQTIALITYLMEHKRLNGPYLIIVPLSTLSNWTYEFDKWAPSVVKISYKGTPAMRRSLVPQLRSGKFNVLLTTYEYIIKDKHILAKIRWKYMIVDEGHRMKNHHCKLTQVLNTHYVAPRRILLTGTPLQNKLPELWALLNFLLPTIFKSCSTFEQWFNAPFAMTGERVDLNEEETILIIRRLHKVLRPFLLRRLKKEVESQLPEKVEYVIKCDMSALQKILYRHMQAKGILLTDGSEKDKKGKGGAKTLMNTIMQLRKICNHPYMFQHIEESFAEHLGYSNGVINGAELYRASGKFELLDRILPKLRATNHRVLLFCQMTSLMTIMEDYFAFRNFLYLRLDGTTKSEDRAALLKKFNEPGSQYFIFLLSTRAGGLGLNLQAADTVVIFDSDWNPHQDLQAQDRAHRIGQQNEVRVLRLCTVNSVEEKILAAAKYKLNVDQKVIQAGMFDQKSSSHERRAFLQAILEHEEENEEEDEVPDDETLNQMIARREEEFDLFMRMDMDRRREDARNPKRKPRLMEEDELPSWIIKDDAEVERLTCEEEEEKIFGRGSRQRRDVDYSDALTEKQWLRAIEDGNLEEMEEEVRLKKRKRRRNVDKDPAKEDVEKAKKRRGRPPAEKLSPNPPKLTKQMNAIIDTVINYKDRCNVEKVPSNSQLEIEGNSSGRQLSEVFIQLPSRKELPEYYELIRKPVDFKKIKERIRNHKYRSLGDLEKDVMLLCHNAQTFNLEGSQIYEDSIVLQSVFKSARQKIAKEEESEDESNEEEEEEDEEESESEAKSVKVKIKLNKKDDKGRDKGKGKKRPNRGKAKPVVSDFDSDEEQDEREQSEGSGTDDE
T1 sequence (P51532 whole entry, the tested form may be a part): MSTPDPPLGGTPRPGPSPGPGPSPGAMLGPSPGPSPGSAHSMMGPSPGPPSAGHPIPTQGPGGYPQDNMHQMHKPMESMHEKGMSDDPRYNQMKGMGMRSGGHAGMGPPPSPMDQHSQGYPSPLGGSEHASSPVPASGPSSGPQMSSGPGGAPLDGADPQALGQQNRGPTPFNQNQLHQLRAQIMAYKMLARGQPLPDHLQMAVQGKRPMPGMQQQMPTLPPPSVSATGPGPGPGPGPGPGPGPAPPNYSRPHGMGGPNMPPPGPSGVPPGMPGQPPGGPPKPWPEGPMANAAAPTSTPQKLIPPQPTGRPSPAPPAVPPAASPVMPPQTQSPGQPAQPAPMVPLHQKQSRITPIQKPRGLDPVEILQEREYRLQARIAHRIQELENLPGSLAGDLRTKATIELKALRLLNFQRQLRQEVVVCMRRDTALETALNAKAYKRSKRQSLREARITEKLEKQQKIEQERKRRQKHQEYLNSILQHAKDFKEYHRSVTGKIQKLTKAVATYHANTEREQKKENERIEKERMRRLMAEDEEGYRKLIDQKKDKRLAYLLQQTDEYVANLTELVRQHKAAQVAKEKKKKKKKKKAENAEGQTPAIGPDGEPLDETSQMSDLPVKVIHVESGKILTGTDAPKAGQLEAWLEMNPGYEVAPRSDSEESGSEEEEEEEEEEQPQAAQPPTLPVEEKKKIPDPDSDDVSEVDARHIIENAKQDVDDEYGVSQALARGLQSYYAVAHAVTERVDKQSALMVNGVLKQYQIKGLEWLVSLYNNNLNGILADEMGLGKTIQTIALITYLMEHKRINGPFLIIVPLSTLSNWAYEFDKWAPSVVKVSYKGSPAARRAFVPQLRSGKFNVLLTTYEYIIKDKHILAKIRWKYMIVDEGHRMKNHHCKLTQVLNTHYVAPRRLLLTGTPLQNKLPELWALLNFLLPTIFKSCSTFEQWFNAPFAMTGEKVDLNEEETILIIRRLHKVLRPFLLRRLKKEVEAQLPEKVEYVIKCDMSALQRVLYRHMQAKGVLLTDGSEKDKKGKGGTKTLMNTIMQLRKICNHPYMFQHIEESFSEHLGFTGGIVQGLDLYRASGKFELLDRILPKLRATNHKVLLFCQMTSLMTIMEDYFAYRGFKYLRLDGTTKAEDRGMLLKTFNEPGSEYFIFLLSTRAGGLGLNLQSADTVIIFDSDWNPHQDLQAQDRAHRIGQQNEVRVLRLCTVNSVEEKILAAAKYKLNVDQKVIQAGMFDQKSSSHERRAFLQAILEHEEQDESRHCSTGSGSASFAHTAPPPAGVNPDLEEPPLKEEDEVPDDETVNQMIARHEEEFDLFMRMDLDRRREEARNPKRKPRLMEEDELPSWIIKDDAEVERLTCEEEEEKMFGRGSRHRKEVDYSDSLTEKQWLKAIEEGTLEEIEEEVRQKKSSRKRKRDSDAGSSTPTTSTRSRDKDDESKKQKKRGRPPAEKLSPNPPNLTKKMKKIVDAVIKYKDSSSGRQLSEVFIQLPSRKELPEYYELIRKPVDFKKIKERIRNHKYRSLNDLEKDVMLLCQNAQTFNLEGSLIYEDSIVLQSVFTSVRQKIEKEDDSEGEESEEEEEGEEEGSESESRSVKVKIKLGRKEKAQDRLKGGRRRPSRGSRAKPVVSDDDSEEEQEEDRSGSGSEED

Regarding `Cc1ncsc1-c1ccc([C@H](C)NC(=O)[C@@H]2C[C@@H](O)CN2C(=O)[C@@H](c2cc(OCCN3CCC(c4cc5cc(-c6ccccc6O)nnc5s4)CC3)no2)C(C)C)cc1` [Compound 2, (2S,4R)-4-hydroxy-1-((R)-2-(3-(2-(4-(3-(2-hydroxyphenyl)thieno[2,3-c]pyridazin-6-yl)piperidin-1-yl)ethoxy)isoxazol-5-yl)-3-methylbutanoyl)-N—((S)-1-(4-(4-methylthiazol-5-yl)phenyl)ethyl)pyrrolidine-2-carboxamide], in assay [1], the Dmax was below 50% and the DC50 is at least 1 µM. For the same compound, in assay [2], the “BRM HiBit Degradation Maximum (%)” value was “A (“A” indicates maximum degradation ≥ 75%)” and the DC50 was at least 0.01 µM.

Turning to `Cc1ncsc1-c1ccc([C@@H](C)NC(=O)[C@H]2C[C@H](O)CN2C(=O)[C@H](c2cc(OCCN3C[C@@H]4[C@H](C3)[C@H]4c3sc4nnc(-c5ccccc5O)cc4c3C)no2)C(C)C)cc1` [Compound 15], in assay [1], the Dmax is below 50% and the DC50 was at least 1 µM. Also, in assay [2], the “BRM HiBit Degradation Maximum (%)” value was “A (“A” indicates maximum degradation ≥ 75%)” and the DC50 is at least 0.01 µM.

In the case of `Cc1ncsc1-c1ccc([C@H](C)NC(=O)[C@@H]2C[C@@H](O)CN2C(=O)[C@@H](c2cc(N3C[C@H]4C[C@@H]3CN4C(=O)[C@H]3CCc4sc5nnc(-c6ccccc6O)cc5c4C3)no2)C(C)C)cc1` [Compound 41, (2S,4R)-4-hydroxy-1-((R)-2-(3-((1R,4R)-5-((S)-3-(2-hydroxyphenyl)-5,6,7,8-tetrahydrobenzo[4,5]thieno[2,3-c]pyridazine-6-carbonyl)-2,5-diazabicyclo[2.2.1]heptan-2-yl)isoxazol-5-yl)-3-methylbutanoyl)-N—((S)-1-(4-(4-methylthiazol-5-yl)phenyl)ethyl)pyrrolidine-2-carboxamide], in assay [1], the Dmax was at least 50% and the DC50 was at least 0.1 µM. In assay [2], the “BRM HiBit Degradation Maximum (%)” value was “A (“A” indicates maximum degradation ≥ 75%)” and the DC50 is at least 0.01 µM.

Consider `Cc1ncsc1-c1ccc([C@H](C)NC(=O)[C@@H]2C[C@@H](O)CN2C(=O)[C@@H](c2cc(OCC(=O)N3CC(c4cc5nnc(-c6ccccc6O)cc5s4)C3)no2)C(C)C)cc1` [Compound 106, (2S,4R)-4-hydroxy-1-((R)-2-(3-(2-(3-(3-(2-hydroxyphenyl)thieno[3,2-c]pyridazin-6-yl)azetidin-1-yl)-2-oxoethoxy)isoxazol-5-yl)-3-methylbutanoyl)-N-((S)-1-(4-(4-methylthiazol-5-yl)phenyl)ethyl)pyrrolidine-2-carboxamide], for which, in assay [1], the Dmax was at least 50% and the DC50 was at least 1 µM. Moreover, in assay [2], the “BRM HiBit Degradation Maximum (%)” value is “C (“C” indicates maximum degradation < 50%)” and the DC50 is at least 1 µM.

`Cc1ncsc1-c1ccc([C@H](C)NC(=O)[C@@H]2C[C@@H](O)CN2C(=O)[C@@H](c2cc([C@H]3CC[C@H](N4CCC(c5sc6nnc(-c7ccccc7O)cc6c5C)CC4)CC3)no2)C(C)C)cc1` [Compound 38, (2S,4R)-4-hydroxy-1-((R)-2-(3-((1r,4R)-4-(4-(3-(2-hydroxyphenyl)-5-methylthieno[2,3-c]pyridazin-6-yl)piperidin-1-yl)cyclohexyl)isoxazol-5-yl)-3-methylbutanoyl)-N-((S)-1-(4-(4-methylthiazol-5-yl)phenyl)ethyl)pyrrolidine-2-carboxamide]: in assay [1], the Dmax was below 50% and the DC50 is at least 1 µM. In addition, in assay [2], the “BRM HiBit Degradation Maximum (%)” value was “A (“A” indicates maximum degradation ≥ 75%)” and the DC50 is at least 0.1 µM.

As for `Cc1ncsc1-c1ccc([C@H](C)NC(=O)[C@@H]2C[C@@H](O)CN2C(=O)[C@@H](c2cc(OCCN3CC(c4c(C)sc5nnc(-c6ccccc6O)cc45)C3)no2)C(C)C)cc1` [Compound 14], in assay [1], the Dmax is below 50% and the DC50 was at least 1 µM. In assay [2], the “BRM HiBit Degradation Maximum (%)” value is given as “C (“C” indicates maximum degradation < 50%)” and the DC50 is at least 1 µM.

In the case of `Cc1ncsc1-c1ccc([C@H](C)NC(=O)[C@@H]2C[C@@H](O)CN2C(=O)[C@@H](c2cc(OCCN[C@H]3CCc4sc5nnc(-c6ccccc6O)cc5c4C3)no2)C(C)C)cc1` [Compound 39, (2S,4R)-4-hydroxy-1-((R)-2-(3-(2-(((S)-3-(2-hydroxyphenyl)-5,6,7,8-tetrahydrobenzo[4,5]thieno[2,3-c]pyridazin-6-yl)amino)ethoxy)isoxazol-5-yl)-3-methylbutanoyl)-N—((S)-1-(4-(4-methylthiazol-5-yl)phenyl)ethyl)pyrrolidine-2-carboxamide], in assay [1], the Dmax was below 50% and the DC50 is at least 1 µM. In assay [2], the “BRM HiBit Degradation Maximum (%)” value is given as “C (“C” indicates maximum degradation < 50%)” and the DC50 was at least 1 µM.

As to `Cc1ncsc1-c1ccc([C@H](C)NC(=O)[C@@H]2C[C@@H](O)CN2C(=O)[C@@H](c2cc(OCCNC(=O)[C@H]3CCc4sc5nnc(-c6ccccc6O)cc5c4C3)no2)C(C)C)cc1` [Compound 45, (S)-N-(2-((5-((R)-1-((2S,4R)-4-hydroxy-2-(((S)-1-(4-(4-methylthiazol-5-yl)phenyl)ethyl)carbamoyl)pyrrolidin-1-yl)-3-methyl-1-oxobutan-2-yl)isoxazol-3-yl)oxy)ethyl)-3-(2-hydroxyphenyl)-5,6,7,8-tetrahydrobenzo[4,5]thieno[2,3-c]pyridazine-6-carboxamide], in assay [1], the Dmax was below 50% and the DC50 was at least 1 µM. For the same compound, in assay [2], the “BRM HiBit Degradation Maximum (%)” value is reported as “B (“B” indicates maximum degradation ≥ 50%)” and the DC50 was at least 0.1 µM.

Consider `Cc1ncsc1-c1ccc(CNC(=O)[C@@H]2C[C@@H](O)CN2C(=O)[C@@H](NC(=O)CCC(=O)N2CCC(c3cc4cc(-c5ccccc5O)nnc4s3)CC2)C(C)(C)C)cc1` [Compound 27], for which, in assay [1], the Dmax was below 50% and the DC50 is at least 1 µM. In assay [2], the “BRM HiBit Degradation Maximum (%)” value is reported as “B (“B” indicates maximum degradation ≥ 50%)” and the DC50 was at least 1 µM.

Consider `Cc1ncsc1-c1ccc([C@H](C)NC(=O)[C@@H]2C[C@@H](O)CN2C(=O)[C@@H](c2cc(O[C@H]3CC[C@@H]3N3CCC(c4sc5nnc(-c6ccccc6O)cc5c4C)CC3)no2)C(C)C)cc1` [Compound 36, (2S,4R)-4-hydroxy-1-[(2R)-2-{3-[(1S,2S)-2-{4-[3-(2-hydroxyphenyl)-5-methylthieno[2,3-c]pyridazin-6-yl]piperidin-1-yl}cyclobutoxy]-1,2-oxazol-5-yl}-3-methylbutanoyl]-N-[(1S)-1-[4-(4-methyl-1,3-thiazol-5-yl)phenyl]ethyl]pyrrolidine-2-carboxamide], for which, in assay [1], the Dmax is below 50% and the DC50 was at least 1 µM. Also, in assay [2], the “BRM HiBit Degradation Maximum (%)” value was “B (“B” indicates maximum degradation ≥ 50%)” and the DC50 was at least 0.01 µM.

Take `Cc1ncsc1-c1ccc([C@H](C)NC(=O)[C@@H]2C[C@@H](O)CN2C(=O)[C@@H](c2cc(N3C[C@H]4C[C@@H]3CN4C(=O)[C@@H]3CCc4sc5nnc(-c6ccccc6O)cc5c4C3)no2)C(C)C)cc1` [Compound 42, (2S,4R)-4-hydroxy-1-((R)-2-(3-((1R,4R)-5-((R)-3-(2-hydroxyphenyl)-5,6,7,8-tetrahydrobenzo[4,5]thieno[2,3-c]pyridazine-6-carbonyl)-2,5-diazabicyclo[2.2.1]heptan-2-yl)isoxazol-5-yl)-3-methylbutanoyl)-N—((S)-1-(4-(4-methylthiazol-5-yl)phenyl)ethyl)pyrrolidine-2-carboxamide]: in assay [1], the Dmax was below 50% and the DC50 was at least 1 µM. In assay [2], the “BRM HiBit Degradation Maximum (%)” value is given as “A (“A” indicates maximum degradation ≥ 75%)” and the DC50 was at least 0.1 µM.

On to `Cc1ncsc1-c1ccc([C@H](C)NC(=O)[C@@H]2C[C@@H](O)CN2C(=O)[C@@H](c2cc(OCCCN3CCc4sc5nnc(-c6ccccc6O)cc5c4C3)no2)C(C)C)cc1` [Compound 69, (2S,4R)-4-hydroxy-1-((R)-2-(3-(3-(3-(2-hydroxyphenyl)-7,8-dihydropyrido[3′,4′:4,5]thieno[2,3-c]pyridazin-6(5H)-yl)propoxy)isoxazol-5-yl)-3-methylbutanoyl)-N-((S)-1-(4-(4-methylthiazol-5-yl)phenyl)ethyl)pyrrolidine-2-carboxamide], for which, in assay [1], the Dmax is below 50% and the DC50 is at least 1 µM. In assay [2], the “BRM HiBit Degradation Maximum (%)” value is “C (“C” indicates maximum degradation < 50%)” and the DC50 was at least 1 µM.

`Cc1ncsc1-c1ccc(CNC(=O)[C@@H]2C[C@@H](O)CN2C(=O)[C@@H](NC(=O)CCC(=O)N2CC(c3cc4cc(-c5ccccc5O)nnc4s3)C2)C(C)(C)C)cc1` [Compound 25]: in assay [1], the Dmax is below 50% and the DC50 is at least 1 µM. Further, in assay [2], the “BRM HiBit Degradation Maximum (%)” value is recorded as “C (“C” indicates maximum degradation < 50%)” and the DC50 was at least 1 µM.

Consider `Cc1ncsc1-c1ccc(CNC(=O)[C@@H]2C[C@@H](O)CN2C(=O)[C@@H](NC(=O)[C@H]2CC[C@H](c3cnc(N4CCC(c5sc6nnc(-c7ccccc7O)cc6c5C)CC4)nc3)CC2)C(C)(C)C)cc1` [Compound 85, (2S,4R)-4-hydroxy-1-((S)-2-((1r,4S)-4-(2-(4-(3-(2-hydroxyphenyl)-5-methylthieno[2,3-c]pyridazin-6-yl)piperidin-1-yl)pyrimidin-5-yl)cyclohexane-1-carboxamido)-3,3-dimethylbutanoyl)-N-(4-(4-methylthiazol-5-yl)benzyl)pyrrolidine-2-carboxamide], for which, in assay [1], the Dmax was at least 75% and the DC50 was at least 0.1 µM. Also, in assay [2], the “BRM HiBit Degradation Maximum (%)” value is on record as “A (“A” indicates maximum degradation ≥ 75%)” and the DC50 is at least 0.01 µM.
